Laboratory results from US20250145665A1, “MACROCYCLIC PEPTIDES USEFUL AS MODULATORS OF TNF ALPHA” (Bristol-Myers Squibb Company, priority 2023, published 2025).
Where two headings read alike, the source gives them in different places. Starred links: 1 amine or outer side, 2 acyl side, 3 side chain; linkers in the order of their positions; H or OH if unused. Positions of bridges follow the written chain, without caps; N, C: chain ends. Non-standard residues stand in square brackets, D forms with d. Residues, ends and D or L forms follow the SMILES beside them. *: point of attachment. Bip(4'-(3-HOOC-benzamido)) = N[C@@H](Cc1ccc(-c2ccc(NC(=O)c3cccc(C(=O)O)c3)cc2)cc1)C(=O)O; Bip(4'-NHBz) = N[C@@H](Cc1ccc(-c2ccc(NC(=O)c3ccccc3)cc2)cc1)C(=O)O; Bip(4'-NH) = O=C([C@H](Cc1ccc(-c2ccc(N[*:3])cc2)cc1)N[*:1])[*:2]; Bip(4'-COOH) = N[C@@H](Cc1ccc(-c2ccc(C(=O)O)cc2)cc1)C(=O)O; X11 = CC(=O)N[C@@H](Cc1cn(CC(=O)O)c2ccccc12)C(=O)*; Benzoyl(3-OCH2COOH) = O=C(O)COc1cccc(C(=O)*)c1; Phe(3-CONH2) = NC(=O)c1cccc(C[C@H](N)C(=O)O)c1; Bip = N[C@@H](Cc1ccc(-c2ccccc2)cc1)C(=O)O; Tiq1c(1S) = O=C(O)[C@H]1NCCc2ccccc21; 2Pal = N[C@@H](Cc1ccccn1)C(=O)O; Cha = N[C@@H](CC1CCCCC1)C(=O)O; Tle = CC(C)(C)[C@H](N)C(=O)O; Aze = O=C(O)[C@@H]1CCN1; Sar = CNCC(=O)O

Biological target: TNFα (Homo sapiens, UniProt P01375)
Sequence (P01375 77-233 limits assumed): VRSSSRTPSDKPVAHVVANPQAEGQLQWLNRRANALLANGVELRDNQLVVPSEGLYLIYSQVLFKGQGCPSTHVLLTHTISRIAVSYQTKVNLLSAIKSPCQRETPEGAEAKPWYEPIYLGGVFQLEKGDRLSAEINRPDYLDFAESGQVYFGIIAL
Assay: TNF-Induced HEK-Blue Assay
Format: cell-based
[1] = HEK-Blue-CD40L cells, NF-kB-driven secreted alkaline phosphatase reporter, TNFα 0.5 ng/ml, 18 h, read-out: TNF induced HEK-Blue assay IC50 value

Row | SMILES | IC50 [nM] | IC50 [1] [nM]
1 | CC[C@H](C)[C@@H]1NC(=O)[C@@H](CCCNC(=N)N)NC(=O)[C@H](CC(=O)O)NC(=O)[C@H](Cc2cnc[nH]2)NC(=O)CN(C)C(=O)[C@H](Cc2ccc(-c3ccc(NC(=O)c4ccccc4)cc3)cc2)NC(=O)[C@H](Cc2ccc(-c3ccc(C(=O)O)cc3)cc2)NC(=O)[C@H](CC2CCCCC2)NC(=O)CSC[C@@H](C(=O)NCC(N)=O)NC(=O)[C@H](CC(C)C)NC(=O)[C@H](Cc2cnc[nH]2)NC(=O)[C@H](C(C)C)NC(=O)[C@@H]2c3ccccc3CCN2C1=O [Example 373] ({CH2CO}-[Cha][Bip(4'-COOH)][Bip(4'-NHBz)][Sar]HD[dR]I[Tiq1c(1S)]VHLCG-NH2; thioether N-13) | < 50 | –
2 | CC[C@H](C)[C@@H]1NC(=O)[C@@H](CCCNC(=N)N)NC(=O)[C@H](CC(=O)O)NC(=O)[C@H](Cc2cnc[nH]2)NC(=O)CN(C)C(=O)[C@H](Cc2ccc(-c3ccc(NC(=O)c4cccc(C(=O)O)c4)cc3)cc2)NC(=O)[C@H](Cc2ccc(-c3ccc(C(=O)O)cc3)cc2)NC(=O)[C@H](CC2CCCCC2)NC(=O)CSC[C@@H](C(=O)NCC(N)=O)NC(=O)[C@H](CC(C)C)NC(=O)[C@H](Cc2cnc[nH]2)NC(=O)[C@H](C(C)C)NC(=O)[C@@H]2c3ccccc3CCN2C1=O [Example 374] ({CH2CO}-[Cha][Bip(4'-COOH)][Bip(4'-(3-HOOC-benzamido))][Sar]HD[dR]I[Tiq1c(1S)]VHLCG-NH2; thioether N-13) | – | < 50
3 | CC[C@H](C)[C@@H]1NC(=O)[C@@H](CCCNC(=N)N)NC(=O)[C@H](CC(=O)O)NC(=O)[C@H](Cc2cnc[nH]2)NC(=O)CN(C)C(=O)[C@H](Cc2ccc(-c3ccc(NC(=O)c4cccc(OCC(=O)O)c4)cc3)cc2)NC(=O)[C@H](Cc2ccc(-c3ccc(C(=O)O)cc3)cc2)NC(=O)[C@H](CC2CCCCC2)NC(=O)CSC[C@@H](C(=O)NCC(N)=O)NC(=O)[C@H](CC(C)C)NC(=O)[C@H](Cc2cnc[nH]2)NC(=O)[C@H](C(C)C)NC(=O)[C@@H]2c3ccccc3CCN2C1=O [Example 375] ({CH2CO}-[Cha][Bip(4'-COOH)][Bip(4'-NH)](Benzoyl(3-OCH2COOH))[Sar]HD[dR]I[Tiq1c(1S)]VHLCG-NH2; thioether N-13) | < 50 | –
4 | CC[C@H](C)[C@@H]1NC(=O)[C@@H]2CCN2C(=O)[C@H]([C@@H](C)CC)NC(=O)[C@@H](CCCNC(=N)N)NC(=O)[C@H](CC(=O)O)NC(=O)[C@H](Cc2ccc(O)cc2)NC(=O)CN(C)C(=O)[C@H](Cc2ccc(-c3ccc(NC(=O)c4ccccc4)cc3)cc2)NC(=O)[C@H](Cc2ccc(-c3ccccc3)cc2)NC(=O)[C@H](C(C)(C)C)NC(=O)CSC[C@@H](C(=O)NCC(N)=O)NC(=O)[C@H](CC(C)C)NC(=O)[C@H](Cc2ccc(O)cc2)NC1=O [Example 376] ({CH2CO}-[Tle][Bip][Bip(4'-NHBz)][Sar]YD[dR]I[Aze]IYLCG-NH2; thioether N-13) | 50 to 200 | –
5 | CC[C@H](C)[C@@H]1NC(=O)[C@@H]2CCN2C(=O)[C@H]([C@@H](C)CC)NC(=O)[C@@H](CCCNC(=N)N)NC(=O)[C@H](CC(=O)O)NC(=O)[C@H](Cc2ccc(O)cc2)NC(=O)CN(C)C(=O)[C@H](Cc2ccc(-c3ccc(NC(=O)c4cccc(C(=O)O)c4)cc3)cc2)NC(=O)[C@H](Cc2ccc(-c3ccccc3)cc2)NC(=O)[C@H](C(C)(C)C)NC(=O)CSC[C@@H](C(=O)NCC(N)=O)NC(=O)[C@H](CC(C)C)NC(=O)[C@H](Cc2ccc(O)cc2)NC1=O [Example 377] ({CH2CO}-[Tle][Bip][Bip(4'-(3-HOOC-benzamido))][Sar]YD[dR]I[Aze]IYLCG-NH2; thioether N-13) | – | 50 to 200
6 | CC[C@H](C)[C@@H]1NC(=O)[C@@H]2CCN2C(=O)[C@H]([C@@H](C)CC)NC(=O)[C@@H](CCCNC(=N)N)NC(=O)[C@H](CC(=O)O)NC(=O)[C@H](Cc2ccc(O)cc2)NC(=O)CN(C)C(=O)[C@H](Cc2ccc(-c3ccc(NC(=O)c4cccc(OCC(=O)O)c4)cc3)cc2)NC(=O)[C@H](Cc2ccc(-c3ccccc3)cc2)NC(=O)[C@H](C(C)(C)C)NC(=O)CSC[C@@H](C(=O)NCC(N)=O)NC(=O)[C@H](CC(C)C)NC(=O)[C@H](Cc2ccc(O)cc2)NC1=O [Example 378] ({CH2CO}-[Tle][Bip][Bip(4'-NH)](Benzoyl(3-OCH2COOH))[Sar]YD[dR]I[Aze]IYLCG-NH2; thioether N-13) | – | < 50
7 | CC[C@H](C)[C@@H]1NC(=O)[C@@H]2CCCN2C(=O)[C@H]([C@@H](C)CC)NC(=O)[C@@H](CCCNC(=N)N)NC(=O)[C@H](CC(=O)O)NC(=O)[C@H](Cc2ccccn2)NC(=O)CN(C)C(=O)[C@H](Cc2ccc(-c3ccc(NC(=O)[C@H](Cc4cn(CC(=O)O)c5ccccc45)NC(C)=O)cc3)cc2)NC(=O)[C@H](Cc2ccc(-c3ccccc3)cc2)NC(=O)[C@H](C(C)(C)C)NC(=O)CSC[C@@H](C(=O)NCC(N)=O)NC(=O)[C@H](CC(C)C)NC(=O)[C@H](Cc2cccc(C(N)=O)c2)NC1=O [Example 379] ({CH2CO}-[Tle][Bip][Bip(4'-NH)](X11)[Sar][2Pal]D[dR]IPI[Phe(3-CONH2)]LCG-NH2; thioether N-13) | – | 50 to 200
